7 molecules from patent US20070275953A1 (priority 2003, published 2007) can be followed below.

pEC50: −log10 of the molar value.

Test system in the first data set: not listed separately
The data set can be described thus: Cytotoxicity (CC50), MTT assay on P4 cells. The conditions noted are these: human. The data set is classed as cell-based. As for the experimental part:
(§1) For the antiviral and the cytotoxicity assays, the drugs were diluted in complete DMEM medium. In these experiments, drugs were diluted in triplicate wells in a 96-well plate in six, 5 fold serial dilutions.
The 50% cytotoxic concentration (CCso) was determined using a protocol adapted from Pauwels et al. (1988. J. Virol. Methods 20(4):309-21). Briefly, flat bottom 96-well plates were filled with 50 μl of complete medium containing 5.10^3 P4 cells. 2 hours later 50 μl of drug solution were added to the cells. Drugs (dissolved in DMEM, see above) were diluted in six, 5-fold serial dilutions from stock solutions in triplicate wells of a 96-well plate. Cells and compounds were incubated at 37° C. in growth medium for 3 days. Cell viability was determined by MTT assays using the Roche Cell Proliferation KIT. The absorbance (λ=570 nm) was measured on a Benchmark™ Microplate Reader (Biorad) and compared with 12 cell control replicates (no drug added). Each assay was performed at least three times for a total of at least nine replicate wells. This method detects both cytostatic and cytolytic effects of drugs.
Broadly, the CC50 is the concentration giving 50% cytotoxicity. Low readings indicate greater toxicity to the cells, high ones lower toxicity to the cells. Turning to `CCc1c(C)[nH]c(=O)c(CO)c1OC1CCCCCC1` [Z32, 4-(cycloheptyloxy)-3-(hydroxymethyl)-5-ethyl-6-methylpyridin-2(1H)-one], half-maximal cytotoxicity (CC50 at 3 days) was put at 55000 nM.

For `CCOC(=O)c1c(OC2CC(C)CC(C)C2)c(CC)c(C)[nH]c1=O` (stereo not drawn) [Z37, ethyl 4-[(3,5-dimethylcyclohexyl)oxy]-5-ethyl-6-methyl-pyridine-2(1H)-one-3-carboxylate], the CC50 at 3 days was found to be 58000 nM. This CC50 at 3 days and that of the molecule before are within 1.5-fold of each other.

In the next data set the target is T1, HIV-1 reverse transcriptase (Human immunodeficiency virus type 1 group M subtype B, UniProt P04585).
T1 construct: fixed-time assay for HIV-1 reverse transcriptase RNA dependent DNA polymerase activity; RT was purchased from Calbiochem; purchased Calbiochem CAL382129-500
The data set can be described thus: HIV-1 in vitro reverse transcriptase activity (fixed-time RNA dependent DNA polymerase assay). Type of data set: biochemical. The settings on record: residual RT activity, compound at 10 μM; RT activity without compound set at 100%. As for the experimental part:
For the in vitro inhibition studies of the HIV-1 reverse transcriptase activity, stock solutions of the compounds of the present invention were prepared in dimethyl sulfoxide at a final concentration of 10 mM and kept at room temperature. Nevirapine was purchased from Boehringer Ingelheim. Efavirenz was received from the NIH AIDS Research and Reference Reagent Program.
In vitro inhibition studies used a fixed-time assay for HIV-1 reverse transcriptase RNA dependent DNA polymerase activity. RT was purchased from Calbiochem (ref CAL382129-500). One unit of RT corresponds to the amount of enzyme which incorporates one nanomole of [^3H]TTP in 10 minutes at 37° C.
Assays were performed in a final volume of 50 μl. […] Reaction mixtures were incubated at 37° C. for 10 min. The incorporation rate was determined by a standard trichloroacetic acid precipitation procedure (adapted from Current protocols in molecular biology. Eds Wiley, MGH Harvard medical school) and liquid scintillation counting using a Wallac scintillation counter.
The in vitro activity of the compounds, at a final concentration of 10 μM, on the reverse transcriptase (RT) activity of HIV-1 is derivable from the relative (%) reduction in RT activity. Hereby, the RT activity in the absence of any of the compounds is set at 100%.
`CCOC(=O)c1c(OC2CCC(CC)CC2)c(CC)c(C)[nH]c1=O` (stereo not drawn) [Z55]: the “Relative (%) RT activity in vitro (compound added at 10 μM)” value (“Relative (%) RT activity in vitro” for short) was found to be 40.3%.

Take `CCc1c(C)[nH]c(=O)c(C(=O)OCCN(CC)CC)c1OC1CC(C)CC(C)C1` (stereo not drawn) [Z53]: the “Relative (%) RT activity in vitro” value is recorded as 34.3%.

`CCc1c(C)[nH]c(=O)c(CO)c1OC1CCCCCC1` [Z32, 4-(cycloheptyloxy)-3-(hydroxymethyl)-5-ethyl-6-methylpyridin-2(1H)-one]: the “Relative (%) RT activity in vitro” value is listed as 44.0%.

As for `CCOC(=O)c1c(OC2CC(C)CC(C)C2)c(CC)c(C)[nH]c1=O` (stereo not drawn) [Z37, ethyl 4-[(3,5-dimethylcyclohexyl)oxy]-5-ethyl-6-methyl-pyridine-2(1H)-one-3-carboxylate], the “Relative (%) RT activity in vitro” value is listed as 8.3%.

Consider `CCc1c(C)[nH]c(=O)c(N)c1OC1CC(C)CC(C)C1` (stereo not drawn) [Z96inv], for which the “Relative (%) RT activity in vitro” value is listed as 25.4%.

Test system in another data set: not given
Test: not given
Conditions: not given
What is called melting point is the temperature of the solid-liquid transition. Regarding `CCc1c(C)[nH]c(=O)c(CO)c1OC1CCCCCC1` [Z32, 4-(cycloheptyloxy)-3-(hydroxymethyl)-5-ethyl-6-methylpyridin-2(1H)-one], the melting point was 146 °C.

`CCOC(=O)c1c(OC2CC(C)CC(C)C2)c(CC)c(C)[nH]c1=O` (stereo not drawn) [Z37, ethyl 4-[(3,5-dimethylcyclohexyl)oxy]-5-ethyl-6-methyl-pyridine-2(1H)-one-3-carboxylate] came in with a melting point of 108 °C.

A further data set relates to HIV-1 mutant Cys188RT in P4 cells. The data set is described as follows: Anti-HIV assay on P4 cells, Cys188RT mutant. Type of data set: cell-based.
Conditions: not given
An excerpt:
In order to introduce mutation(s) at the level of the pol gene coding for the RT in the pNL4-3 plasmid containing the complete viral genome (Adachi et al., 1986. J. Virol., Vol. 59 p 284-291) we used the “Quick change mutagenesis kit” (Stratagene). The following mutations were separately introduced in pNL4-3: L100I, K103N, V108I, Y181C, Y188C, and the double mutations K103N/V108I. These mutations were chosen because of the resistance that they confer to existing NNRTI. The production procedure of the mutant viral stocks is identical to the one described above.
Anti-HIV activity and cytotoxicity of the compounds were tested on a P4 cell line. The P4 cell line (Clavel & Charneau, 1994. J. Virol., Vol. 68 p 1179-1185) was provided by Dr. François Clavel (Unité de recherche antivirale de l'hôpital Xavier Bichat Paris: Inserm). The P4 cells were cultured in complete DMEM medium supplemented with 10% fetal bovine serum (FBS), 0.5% of Penicillin/Streptomycin and G418 at 0.5 mg/ml. Exponentially growing cells were trypsinized, centrifuged and split twice weekly at 5.10^4 cells/ml.
The P4 cells are HIV-infectible Hela-CD4 cells that carry the bacterial lacZ gene under the control of the HIV-1 long terminal repeat (LTR). In this cell line, transcription of the LacZ gene is driven by the HIV-1 LTR. As such, the cytoplasmic accumulation of β-galactosidase is strictly dependent on the presence of the HIV transactivator Tat produced during the intracellular viral replication (Clavel & Charneau, 1994. J. Virol., Vol. 68, p. 1179-1185). In other words, in this system, the expression level of the β-galactosidase gene is proportional to the viral replication.
(§2) Briefly, in the anti-HIV assay 100 Ål of P4 cells were plated in 96-well plate at a concentration of 0.4 10^5 cells/ml and incubated at 37° C., 5% CO2. After 48 h, the medium was removed and 100 Ål of the different drugs dilutions were added to the cells. Four hours after the addition of the drugs all cells were infected with equal amount of cell-free virus, corresponding to 100 ng of HIV p24 antigen. After 48 h of incubation at 37° C., 5% CO2, β-galactosidase activity was measured using chlorophenol red-β-D-galactopyranoside assays.
The absorbance was measured on a Benchmark™ Microplate Reader (Biorad) (λ=570 nm) and compared with 12 cell control replicates (no virus or drug added) and 12 virus control wells (no drug added). Each assay was performed a minimum of three times. The 50% effective concentration (Ec50) was calculated from each dose response curve using the CurveExpert 1.3 software. As Nevirapine activity corresponds to its published values (10-100 nM), the data are consistent with other measures of viral replication.
As to `CCOC(=O)c1c(OC2CC(C)CC(C)C2)c(CC)c(C)[nH]c1=O` (stereo not drawn) [Z37, ethyl 4-[(3,5-dimethylcyclohexyl)oxy]-5-ethyl-6-methyl-pyridine-2(1H)-one-3-carboxylate], the “activity on Cys188 mutant strains compared with the cyclohexyl derivative” value is on record as “more active on Cys188 mutant strains than the cyclohexyl derivative”.

Still in this data set, the particulars now being: Human immunodeficiency virus 1, read-out: EC50 Cys188RT.
Usually pEC50 stands for the negative decadic logarithm of the EC50, by convention in mol/L. For the molecule `CCOC(=O)c1c(OC2CC(C)CC(C)C2)c(CC)c(C)[nH]c1=O` (stereo not drawn) [Z37, ethyl 4-[(3,5-dimethylcyclohexyl)oxy]-5-ethyl-6-methyl-pyridine-2(1H)-one-3-carboxylate], the pEC50 is 8.22.

Staying with this data set, now noted: Table 8, effect of the R2 substituent; cell line not given; read-out: EC50 Cys188RT.
On to `CCOC(=O)c1c(OC2CCCCC2)c(CC)c(C)[nH]c1=O` [reference compound], for which the pEC50 was 5.19.

The next data set relates to HIV-1 with WT (wild type) RT in P4 cells. The data set is described as follows: Anti-HIV assay on P4 cell line, WT RT. The data set is classed as cell-based. The settings on record: Human immunodeficiency virus 1; P4 cell line, WT RT; read-out: EC50 WT. As for the experimental part:
as §1
Two days later, co-cultivation with SupT1 cells (a human T-cell lymphoma cell line) was initiated to facilitate rapid production of progeny virions. Production of virus was measured by using the Innotest HIV Antigen mAb p24 kit (Innogenetics). At the peak of production cultures were harvested and filtered. The virus stocks were stored at −80° C. until used.
Anti-HIV activity and cytotoxicity of the compounds were tested on a P4 cell line. […] The P4 cells were cultured in complete DMEM medium supplemented with 10% fetal bovine serum (FBS), 0.5% of Penicillin/Streptomycin and G418 at 0.5 mg/ml. Exponentially growing cells were trypsinized, centrifuged and split twice weekly at 5.10^4 cells/ml.
The P4 cells are HIV-infectible Hela-CD4 cells that carry the bacterial lacZ gene under the control of the HIV-1 long terminal repeat (LTR). In this cell line, transcription of the LacZ gene is driven by the HIV-1 LTR. […] In other words, in this system, the expression level of the β-galactosidase gene is proportional to the viral replication.
as §2
Each assay was performed a minimum of three times. The 50% effective concentration (Ec50) was calculated from each dose response curve using the CurveExpert 1.3 software.
Take `CCc1c(C)[nH]c(=O)c(CO)c1OC1CCCCCC1` [Z32, 4-(cycloheptyloxy)-3-(hydroxymethyl)-5-ethyl-6-methylpyridin-2(1H)-one]: the pEC50 is 5.94.

In the case of `CCOC(=O)c1c(OC2CC(C)CC(C)C2)c(CC)c(C)[nH]c1=O` (stereo not drawn) [Z37, ethyl 4-[(3,5-dimethylcyclohexyl)oxy]-5-ethyl-6-methyl-pyridine-2(1H)-one-3-carboxylate], the pEC50 is 7.37.

Still in this data set, the particulars now being: P4 cell line, WT RT.
For `CCc1c(C)[nH]c(=O)c(CO)c1OC1CCCCCC1` [Z32, 4-(cycloheptyloxy)-3-(hydroxymethyl)-5-ethyl-6-methylpyridin-2(1H)-one], the “SI (selectivity index = CC50/EC50)” value is 47.

With `CCOC(=O)c1c(OC2CC(C)CC(C)C2)c(CC)c(C)[nH]c1=O` (stereo not drawn) [Z37, ethyl 4-[(3,5-dimethylcyclohexyl)oxy]-5-ethyl-6-methyl-pyridine-2(1H)-one-3-carboxylate], the “SI (selectivity index = CC50/EC50)” value came out at 1349.

The data set is the same for the next values; noted with them: Table 8, effect of the R2 substituent; cell line not given; read-out: EC50 WT.
Take `CCOC(=O)c1c(OC2CCCCC2)c(CC)c(C)[nH]c1=O` [reference compound]: the pEC50 is 6.11.

With `CCOC(=O)c1c(OC2CCCC2)c(CC)c(C)[nH]c1=O` [reference compound], the pEC50 is 5.72.
